Test results taken from BindingDB's records for doi:10.1016/s0960-894x(01)00306-7 (Atherogenics, 2001).

Experiment: Ability to inhibit expression of Vascular cell adhesion molecule 1

Structure (SMILES)	IC50 [µM]
N#Cc1ccc(Cl)c([N+](=O)[O-])c1 [4-Chloro-3-nitro-benzonitrile]	11
CN(CCCN(C)S(=O)(=O)c1ccc(Cl)c([N+](=O)[O-])c1)S(=O)(=O)c1ccc(Cl)c([N+](=O)[O-])c1 [1N-{3-[4-chloro-3-nitrophenyl(methyl)sulfonamido]propyl}-1N-methyl-4-chloro-3-nitro-1-benzenesulfonamide]	6
O=Cc1ccc(Cl)c([N+](=O)[O-])c1 [4-Chloro-3-nitro-benzaldehyde]	15
CCN(C(C)C)S(=O)(=O)c1ccc(Cl)c([N+](=O)[O-])c1 [4-Chloro-N-ethyl-N-isopropyl-3-nitro-benzenesulfonamide]	15
COCCN(CCOC)S(=O)(=O)c1ccc(Cl)c([N+](=O)[O-])c1 [4-Chloro-N,N-bis-(2-methoxy-ethyl)-3-nitro-benzenesulfonamide]	5
O=[N+]([O-])c1cc(S(=O)(=O)N2CCCC2)ccc1Cl [1-(4-Chloro-3-nitro-benzenesulfonyl)-pyrrolidine]	4
CCCN(CCC)S(=O)(=O)c1ccc(Cl)c([N+](=O)[O-])c1 [4-Chloro-3-nitro-N,N-dipropyl-benzenesulfonamide]	9
CN(C)S(=O)(=O)c1ccc(Cl)c([N+](=O)[O-])c1 [4-Chloro-N,N-dimethyl-3-nitro-benzenesulfonamide]	10
CC(C)N(C(C)C)S(=O)(=O)c1ccc(Cl)c([N+](=O)[O-])c1 [4-Chloro-N,N-diisopropyl-3-nitro-benzenesulfonamide]	10
NS(=O)(=O)c1ccc(Cl)c([N+](=O)[O-])c1 [4-Chloro-3-nitro-benzenesulfonamide]	40
CN(CCCCCCN(C)S(=O)(=O)c1ccc(Cl)c([N+](=O)[O-])c1)S(=O)(=O)c1ccc(Cl)c([N+](=O)[O-])c1 [1N-{6-[4-chloro-3-nitrophenyl(methyl)sulfonamido]hexyl}-1N-methyl-4-chloro-3-nitro-1-benzenesulfonamide]	30
N#Cc1cc([N+](=O)[O-])c(Cl)c([N+](=O)[O-])c1 [4-Chloro-3,5-dinitro-benzonitrile]	20
CCCCCN(CCCCC)S(=O)(=O)c1ccc(Cl)c([N+](=O)[O-])c1 [4-Chloro-3-nitro-N,N-dipentyl-benzenesulfonamide]	7
O=[N+]([O-])c1cc(S(=O)(=O)c2ccc(F)c([N+](=O)[O-])c2)ccc1F [1-fluoro-4-[(4-fluoro-3-nitrophenyl)sulfonyl]-2-nitrobenzene]	7
O=C(c1ccc(Cl)c([N+](=O)[O-])c1)c1ccc(Cl)c([N+](=O)[O-])c1 [Bis-(4-chloro-3-nitro-phenyl)-methanone]	5
N#Cc1cc([N+](=O)[O-])ccc1Cl [2-Chloro-5-nitro-benzonitrile]	17
CCCCN(CCCC)S(=O)(=O)c1ccc(Cl)c([N+](=O)[O-])c1 [N,N-Dibutyl-4-chloro-3-nitro-benzenesulfonamide]	10
CCN(C)S(=O)(=O)c1ccc(Cl)c([N+](=O)[O-])c1 [4-Chloro-N-ethyl-N-methyl-3-nitro-benzenesulfonamide]	10
CN1CCN(S(=O)(=O)c2ccc(Cl)c([N+](=O)[O-])c2)CC1 [1-(4-Chloro-3-nitro-benzenesulfonyl)-4-methyl-piperazine]	8
CCNS(=O)(=O)c1ccc(Cl)c([N+](=O)[O-])c1 [4-Chloro-N-ethyl-3-nitro-benzenesulfonamide]	15
O=[N+]([O-])c1cc(S(=O)(=O)NCc2ccccc2)ccc1Cl [N-Benzyl-4-chloro-3-nitro-benzenesulfonamide]	18
N#Cc1ccc(Cl)cc1[N+](=O)[O-] [4-Chloro-2-nitro-benzonitrile]	5
CCN(CC)S(=O)(=O)c1ccc(Cl)c([N+](=O)[O-])c1 [4-Chloro-N,N-diethyl-3-nitro-benzenesulfonamide]	3
O=[N+]([O-])c1cc(S(=O)(=O)N(CCO)CCO)ccc1Cl [4-Chloro-N,N-bis-(2-hydroxy-ethyl)-3-nitro-benzenesulfonamide]	19
N#Cc1cc([N+](=O)[O-])cc([N+](=O)[O-])c1 [3,5-Dinitro-benzonitrile]	10
CNS(=O)(=O)c1ccc(Cl)c([N+](=O)[O-])c1 [4-Chloro-N-methyl-3-nitro-benzenesulfonamide]	11
O=C(c1ccccc1)c1ccc(Cl)c([N+](=O)[O-])c1 [(4-Chloro-3-nitro-phenyl)-phenyl-methanone]	15
COC(=O)c1ccc(S(C)(=O)=O)c([N+](=O)[O-])c1 [4-Methanesulfonyl-3-nitro-benzoic acid methyl ester]	5
CCOC(=O)C1CCN(S(=O)(=O)c2ccc(Cl)c([N+](=O)[O-])c2)CC1 [1-(4-Chloro-3-nitro-benzenesulfonyl)-piperidine-4-carboxylic acid ethyl ester]	8
